These results are taken from patent publication US10316038B2, “Pyrrolopyrimidine ITK inhibitors for treating inflammation and cancer” (ACLARIS THERAPEUTICS, INC., priority 2017, dated 2019).

The subject of test [1] is ITK phosphorylation of its substrate, PLCγ1, at Y783. Nature of the test: ITK target modulation assay (phospho-Y783 PLCγ1 immunoblot in Jurkat T cells). The class given is cell-based. Conditions: Homo sapiens, Jurkat, 2 h, 2 hours compound, CD3/CD28 Dynabeads stimulation 100 sec, anti-phospho-Y783 PLCγ1 immunoblot, read-out: PLC-γ Inhibition IC50. On the procedure: Target modulation was based upon the ability of a compound to inhibit ITK phosphorylation of its substrate, PLCγ1, at […]. Human Jurkat T cells were placed in snap-cap polypropylene tubes at 4 million per tube in 800 μL medium (RPMI1640 with 10% heat inactivated serum and […] 2-mercaptoethanol and supplemented with glutamine/penicillin/streptomycin). Compounds were added as 100 μL of 10× working stock solutions in medium with 1% DMSO (or medium with 1% DMSO for controls) and placed in a 37° C. incubator for 2 hours. Stimulation was carried out using CD3/CD28 Dynabeads to activate the T cell receptor and mimic antigen presenting cells. Beads were added for 100 sec at a ratio of 1 bead per cell, in 100 μL medium (or medium alone for unstimulated control). Starting at 70 sec, cells and beads were pelleted in a microfuge for 15 sec, the supernatant aspirated, and 50 μL lysis buffer was added per tube and mixed with the pellet at the 100 sec time point. Tubes were placed on a rotator for 30 min at 4° C., and cell debris was pelleted in a microfuge. Supernatant was mixed 1:1 with 2× Sample Buffer and subjected to SDS-polyacrylamide gel electrophoresis. After transfer to nitrocellulose, immunoblotting was done with anti-phospho-[…] PLCγ1 antibody. Immunoblots were visualized with ECL using horseradish peroxidase conjugated secondary antibody.
(In general: A western blot detects proteins with antibodies after separation by electrophoresis.)

The target in test [2] is T1, ITK (Homo sapiens, UniProt Q08881).
T1 sequence (Q08881 1-620): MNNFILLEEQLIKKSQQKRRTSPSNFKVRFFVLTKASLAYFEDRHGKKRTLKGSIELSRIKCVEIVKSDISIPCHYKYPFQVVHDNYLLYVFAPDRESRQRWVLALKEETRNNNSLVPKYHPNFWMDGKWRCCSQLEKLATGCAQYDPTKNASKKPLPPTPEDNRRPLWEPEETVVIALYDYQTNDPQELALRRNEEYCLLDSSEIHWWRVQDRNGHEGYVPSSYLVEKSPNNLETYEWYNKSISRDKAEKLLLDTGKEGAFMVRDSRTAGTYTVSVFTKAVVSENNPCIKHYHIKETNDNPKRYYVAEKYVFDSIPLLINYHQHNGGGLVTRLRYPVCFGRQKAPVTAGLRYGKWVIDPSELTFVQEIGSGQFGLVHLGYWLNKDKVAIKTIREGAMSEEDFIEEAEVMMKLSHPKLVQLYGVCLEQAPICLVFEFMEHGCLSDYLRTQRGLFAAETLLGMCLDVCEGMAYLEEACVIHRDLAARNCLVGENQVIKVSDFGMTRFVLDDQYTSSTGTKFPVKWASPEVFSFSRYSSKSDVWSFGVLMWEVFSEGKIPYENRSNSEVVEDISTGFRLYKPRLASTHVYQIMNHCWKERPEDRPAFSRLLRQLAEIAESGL
Nature of the test: ITK inhibitor binding potency (LanthaScreen competitive binding assay). The settings on record: TR-FRET competitive binding, 10 nM ITK, 50 nM kinase tracer-236; pre-incubation condition not given; read-out: ITK Inhibition IC50. The source says: The ability of candidate compounds to interact with ITK is quantitated by a competitive binding assay using the LanthaScreen technology developed by Life Technologies. This assay is based on the binding of a proprietary, Alexa Fluor™ 647-labeled, ATP-competitive kinase inhibitor (kinase tracer-236) to the ITK expression construct in the presence of a Europium-conjugated antibody, resulting in a FRET (fluorescence resonance energy transfer) signal. Displacement of the kinase tracer by compound results in a lower emission ratio upon excitation of the Europium chelate. Candidate compounds are designed as potential irreversible inhibitors of ITK, capable of ligating to an active site cysteine residue resulting in time dependent covalent binding. The time dependent nature of irreversible inhibition is investigated by performing the binding assay with and without a pre-incubation of compound and ITK. […] The inhibitory potency of candidate compounds is measured in 20 mM HEPES pH 7.5, 10 mM MgCl2, 0.01% BSA, 0.0005% Tween-20, and 2% DMSO in the presence of 10 nM ITK, 2 nM Eu-anti-GST antibody, and 50 nM kinase tracer-236 using a 384-well plate format. Background signal is defined in the absence of ITK and uninhibited signal is defined in the presence of vehicle (2% DMSO) alone. Compounds were evaluated in an 11 point dose-response ranging from 20 uM to 0.34 nM. The binding assays are performed under two preincubation conditions to evaluate time dependence of inhibition. For the pre-incubation assay, ITK and Eu-anti-GST antibody are pre-incubated with compound or vehicle for two hours prior to the addition of kinase tracer. The non-preincubated assay is run under conditions where ITK and Eu-anti-GST antibody are added to a mixture of compound and kinase tracer. IC50 values of compounds are determined using a 4 parameter logistical fit of emission ratio as a function of the concentration of compound.
(In general: Time-resolved FRET reads energy transfer from a long-lived donor to a nearby acceptor.)

As to `COc1cc(-c2c[nH]c3ncc(-c4cc(NC(=O)/C=C/CN(C)C)cc(C(F)(F)F)c4)cc23)ccn1` [Example 56, (E)-4-(dimethyl-amino)-N-(3-(3-(2-methoxy-pyridin-4-yl)-1H-pyrrolo[2,3-b]-pyridin-5-yl)-5-(trifluoromethyl)-phenyl)but-2-enamide], the IC50 (in general, the midpoint of a concentration-inhibition curve) in test [1] was ≤ 1000 nM; in test [2], ≤ 100 nM. With `CN(C)C/C=C/C(=O)N(C)c1cncc(-c2cnc3[nH]cc(-c4ccnc(F)c4)c3c2)c1` [Example 74, (E)-4-(dimethyl-amino)-N-(5-(3-(2-fluoropyridin-4-yl)-1H-pyrrolo-[2,3-b]pyridin-5-yl)pyridin-3-yl)-N-methylbut-2-enamide], in test [1], the half-maximal inhibitory concentration (IC50) is ≤ 1000 nM. Take `CN(C)C/C=C/C(=O)Nc1cc(-c2cnc3c(c2)c(-c2cccc(C#N)c2)cn3C)cc(C(F)(F)F)c1` [Example 70]: the IC50 is > 5000 nM in test [1] and > 1000 nM in test [2]. The corresponding values for `COc1cc(NC(=O)/C=C/CN(C)C)cc(-c2cnc3[nH]cc(-c4ccnc(C)c4)c3c2)c1` [Example 37] are ≤ 1000 nM and ≤ 100 nM. With `C=CC(=O)Nc1cccc(-c2cnc3[nH]cc(-c4cccc(C#N)c4)c3c2C)c1` [Example 43, N-(3-(3-(3-cyano-phenyl)-4-methyl-1H-pyrrolo[2,3-b]pyridin-5-yl)-phenyl)acrylamide], the IC50 is ≤ 1000 nM in test [1] and ≤ 100 nM in test [2]. As to `CN(C)C/C=C/C(=O)Nc1cccc(-c2cnc3[nH]cc(-c4cncc(C(N)=O)c4)c3c2)c1` [Example 10, (E)-5-(5-(3-(4-(dimethylamino)-but-2-enamido)-phenyl)-1H-pyrrolo[2,3-b]-pyridin-3-yl)-nicotinamide], the IC50 in test [1] was > 5000 nM; in test [2], ≤ 100 nM. With `CN(C)C/C=C/C(=O)Nc1cc(-c2cnc3[nH]cc(-c4ccnc5c4ccn5C)c3c2)cc(C(F)(F)F)c1` [Example 55, (E)-4-(dimethyl-amino)-N-(3-(1′-methyl-1H,1′H-[3,4′-bipyrrolo[2,3-b]pyridin]-5-yl)-5-(trifluoro-methyl)phenyl)-but-2-enamide], the IC50 in test [1] is ≤ 1000 nM; in test [2], ≤ 100 nM. Taken in the same sequence, the figures for `C=CC(=O)Nc1cc(OC)cc(-c2cnc3[nH]cc(-c4ccnc5[nH]ccc45)c3c2)c1` [Example 15, N-(3-(1H,1′H-[3,4′-bipyrrolo-[2,3-b]pyridin]-5-yl)-5-methoxy-phenyl)acrylamide] were ≤ 1000 nM and ≤ 100 nM.

With `Cc1cc(-c2c[nH]c3ncc(-c4cccc(NC(=O)/C=C/CN(C)C)c4)cc23)ccn1` [Example 48, (E)-4-(dimethyl-amino)-N-(3-(3-(2-methylpyridin-4-yl)-1H-pyrrolo-[2,3-b]pyridin-5-yl)phenyl)but-2-enamide], the IC50 in test [1] was ≤ 1000 nM; in test [2], ≤ 100 nM. Taken in the same sequence, the figures for `C=CC(=O)Nc1cc(-c2cnc3[nH]cc(-c4ccnc(C#N)c4)c3c2)cc(-c2cnn(C)c2)c1` [Example 21, N-(3-(3-(2-cyano-pyridin-4-yl)-1H-pyrrolo[2,3-b]pyridin-5-yl)-5-(1-methyl-1H-pyrazol-4-yl)-phenyl)acrylamide] were ≤ 1000 nM and ≤ 100 nM.

For the compound `CN(C)C/C=C/C(=O)Nc1cc(-c2cnc3[nH]cc(-c4ccnc(C#N)c4)c3c2)cc(C(F)(F)F)c1` [Example 40, (E)-N-(3-(3-(2-cyanopyridin-4-yl)-1H-pyrrolo-[2,3-b]pyridin-5-yl)-5-(trifluoro-methyl)phenyl)-4-(dimethyl-amino)but-2-enamide], the IC50 was ≤ 1000 nM in test [1] and ≤ 100 nM in test [2]. Taken in the same sequence, the figures for `CN(C)C/C=C/C(=O)Nc1cccc(-c2cnc3[nH]cc(-c4cn(C)c(=O)c5[nH]ccc45)c3c2)c1` [Example 6, (E)-4-(dimethyl-amino)-N-(3-(3-(6-methyl-7-oxo-6,7-dihydro-1H-pyrrolo[2,3-c]-pyridin-4-yl)-1H-pyrrolo[2,3-b]-pyridin-5-yl)-phenyl)but-2-enamide] were > 5000 nM and ≤ 100 nM.

Turning to `C=CC(=O)Nc1cc(-c2cnc3[nH]cc(-c4ccnc(C#N)c4)c3c2)cc(C(F)(F)F)c1` [Example 35, N-(3-(3-(2-cyano-pyridin-4-yl)-1H-pyrrolo[2,3-b]-pyridin-5-yl)-5-(trifluoromethyl)-phenyl)acrylamide], the half-inhibitory concentration (IC50) is ≤ 1000 nM in test [1] and ≤ 100 nM in test [2]. The corresponding values for `C=CC(=O)Nc1cccc(-c2cnc3[nH]cc(-c4cncc(NC)c4)c3c2)c1` [Example 24, N-(3-(3-(5-(methylamino)-pyridin-3-yl)-1H-pyrrolo[2,3-b]-pyridin-5-yl)-phenyl)acrylamide] are ≤ 1000 nM and ≤ 100 nM.

As to `COc1cc(-c2c[nH]c3ncc(-c4cncc(N(C)C(=O)/C=C/CN(C)C)c4)cc23)ccn1` [Example 73, (E)-4-(dimethyl-amino)-N-(5-(3-(2-methoxypyridin-4-yl)-1H-pyrrolo-[2,3-b]pyridin-5-yl)pyridin-3-yl)-N-methylbut-2-enamide], the IC50 in test [1] was ≤ 1000 nM. With `C=CC(=O)Nc1cncc(-c2cnc3[nH]cc(-c4cccc(C(F)(F)F)c4)c3c2)c1` [Example 62, N-(5-(3-(3-(trifluoromethyl)-phenyl)-1H-pyrrolo[2,3-b]-pyridin-5-yl)-pyridin-3-yl)-acrylamide], the IC50 was > 5000 nM in test [1] and ≤ 1000 nM in test [2].

In the case of `C=CC(=O)Nc1cc(OC)cc(-c2cnc3[nH]cc(-c4ccnc(C)c4)c3c2)c1` [Example 28, N-(3-methoxy-5-(3-(2-methyl-pyridin-4-yl)-1H-pyrrolo[2,3-b]-pyridin-5-yl)-phenyl)acrylamide], the IC50 in test [1] is ≤ 1000 nM; in test [2] it was ≤ 100 nM. Taken in the same sequence, the figures for `C=CC(=O)Nc1cc(OC)cc(-c2cnc3[nH]cc(-c4ccnc(C#N)c4)c3c2)c1` [Example 51, N-(3-(3-(2-cyano-pyridin-4-yl)-1H-pyrrolo[2,3-b]-pyridin-5-yl)-5-methoxyphenyl)-acrylamide] were > 5000 nM and ≤ 100 nM.

Turning to `C=CC(=O)Nc1cccc(-c2cnc3[nH]cc(-c4cncc(C#N)c4)c3c2)c1` [Example 8, N-(3-(3-(5-cyano-pyridin-3-yl)-1H-pyrrolo[2,3-b]-pyridin-5-yl)-phenyl)acrylamide], the IC50 was 1000 to 5000 nM in test [1] and ≤ 100 nM in test [2]. Consider `C=CC(=O)Nc1cc(C)cc(-c2cnc3[nH]cc(-c4cccc(C#N)c4)c3c2)c1` [Example 75, N-(3-(3-(3-cyano-phenyl)-1H-pyrrolo[2,3-b]-pyridin-5-yl)-5-methylphenyl)-acrylamide], for which the IC50 in test [1] fell in the range of 1000 to 5000 nM. On the same count and under the same terms, the result for `Cc1cc(NC(=O)/C=C/CN(C)C)cc(-c2cnc3[nH]cc(-c4cccc(C#N)c4)c3c2)c1` [Example 76, (E)-N-(3-(3-(3-cyanophenyl)-1H-pyrrolo[2,3-b]-pyridin-5-yl)-5-methylphenyl)-4-(dimethyl-amino)but-2-enamide] reads 1000 to 5000 nM.
